Assay results from PubChem BioAssay (NCI).
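Cultured in 96-well plates, cells were exposed to test compound for 48 hours across five concentrations. Here, GI50 denotes the concentration required for 50% inhibition of growth. TGI marks complete inhibition of growth.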

Key:
Assay in all cases: inhibition of tumour cell growth, NCI panel, 48 h
CAKI-1 renal = system: CAKI-1 renal
HCT-15 colon = system: HCT-15 colon
HL-60(TB) leukemia = system: HL-60(TB) leukemia
MALME-3M melanoma = system: MALME-3M melanoma
MOLT-4 leukemia = system: MOLT-4 leukemia
NCI-H226 lung = system: NCI-H226 lung
OVCAR-4 ovarian = system: OVCAR-4 ovarian
OVCAR-8 ovarian = system: OVCAR-8 ovarian
SF-295 CNS = system: SF-295 CNS
SK-OV-3 ovarian = system: SK-OV-3 ovarian
SN12C renal = system: SN12C renal
SNB-75 CNS = system: SNB-75 CNS
SR leukemia = system: SR leukemia
TK-10 renal = system: TK-10 renal
UACC-62 melanoma = system: UACC-62 melanoma

Structure (SMILES) | TGI (CAKI-1 renal) [µM] | TGI (HCT-15 colon) [µM] | TGI (HL-60(TB) leukemia) [µM] | TGI (MALME-3M melanoma) [µM] | TGI (MOLT-4 leukemia) [µM] | TGI (NCI-H226 lung) [µM] | TGI (OVCAR-4 ovarian) [µM] | TGI (OVCAR-8 ovarian) [µM] | TGI (SF-295 CNS) [µM] | TGI (SK-OV-3 ovarian) [µM] | TGI (SN12C renal) [µM] | TGI (SNB-75 CNS) [µM] | TGI (SR leukemia) [µM] | TGI (TK-10 renal) [µM] | TGI (UACC-62 melanoma) [µM] | GI50 (CAKI-1 renal) [µM] | GI50 (NCI-H226 lung) [µM] | GI50 (SNB-75 CNS) [µM]
CC1(C)CC(=O)/C(=C/C2CCNC2=S)C(=O)N1 (stereo not given) | > 100 | > 100 | > 100 | > 100 | > 100 | > 100 | > 100 | > 100 | > 100 | > 100 | > 100 | > 100 | > 100 | > 100 | > 100 |  |  | 
C=C[C@@H](OCOCC[Si](C)(C)C)[C@@H](CC)OC(CCCOC(=O)C(C)(C)C)OC (stereo not given in full) | > 100 | 50.9 | 49.6 |  | > 100 | 81.6 | > 100 | > 100 | 50.7 | > 100 | > 100 | > 100 | > 100 | 78.9 | 81.3 |  |  | 
Cc1ccc(N/C(Sc2ccccc2)=C(/C(Cl)=C(Cl)Cl)[N+](=O)[O-])c(C)c1 | 30.7 | 32.3 | 56.2 | 34 | > 100 | 55.4 | > 100 | > 100 | 47 | 99.2 | 43.1 |  | > 100 | > 100 | 62.2 |  |  | 
CC1C2=C(CC(C)(C)CC2=O)NC2=C1C(=O)CC(C)(C)C2 | > 100 | > 100 | > 100 |  | > 100 | > 100 | > 100 | > 100 |  | > 100 | > 100 | > 100 | > 100 | > 100 | > 100 |  |  | 
COc1ccc(N)c(C(O)CCNC(C)=O)c1 (stereo not given) | > 100 | > 100 | > 100 |  | > 100 | > 100 | > 100 | > 100 | > 100 | > 100 | > 100 | > 100 | > 100 | > 100 | > 100 |  |  | 
O=C1c2cccc3cccc(c23)C(=O)N1CCCNCCCCNCCCN1C(=O)c2cccc3cccc(c23)C1=O | 5.65 | 13.8 | 1.93 | 0.74 |  | 2.5 | 1.93 | 2.24 | 3.4 | 6.65 | 2.37 | 1.01 | 0.219 | 7.62 | 1.44 |  |  | 
CN1CCC(CNC(=O)CCCCCCCCC(=O)NCC2(c3ccccc3)CCN(C)CC2)(c2ccccc2)CC1 |  | > 100 | > 100 | > 100 | > 100 | > 100 | > 100 | > 100 | > 100 | > 100 | > 100 | > 100 | > 100 | > 100 | > 100 |  |  | 
Cc1c(/C=N/NC(=S)Nc2cccc(Cl)c2)c(=O)n(-c2ccccc2)n1C | 25.7 | > 100 | > 100 |  | > 100 | 33.9 | 40 | 35.6 | 28 | 38.2 |  | 28.3 | > 100 | 44.3 | > 100 |  |  | 
COc1cccc(/C(CC(O)(C(F)(F)F)C(F)(F)F)=N\N(C)C)c1 | > 100 | > 100 | > 100 | > 100 | > 100 | > 100 | > 100 |  | > 100 | > 100 | > 100 | > 100 | > 100 | > 100 | > 100 |  |  | 
COC(=O)c1ccc(Oc2nc3ccccc3nc2-c2cccs2)cc1 | > 100 | > 100 | > 100 | > 100 | > 100 |  | > 100 | > 100 | 48 | > 100 | > 100 | 26 | > 100 | 86.8 | > 100 |  |  | 
c1cc(-c2csc(-c3ccsc3)c2)cs1 | > 100 | > 100 | > 100 |  | > 100 | 83.2 | > 100 | > 100 | > 100 | > 100 | > 100 | > 100 | > 100 | > 100 | > 100 |  |  | 
NC(=O)C(c1ccccc1)N1OC2C(=O)N(Cc3ccccc3)C(=O)C2C1c1cccc(Oc2ccc(Cl)cc2)c1 (stereo not given) | 31.9 | > 100 | 51.2 | > 100 | 98.9 | > 100 | > 100 | > 100 | > 100 | > 100 | 30.7 | > 100 | 54.1 | 95.6 | 32.3 |  |  | 
CCC(CC)C(=O)OC[n+]1ccc(-c2c(COC(=O)NC(C)C)c(COC(=O)NC(C)C)c3n2CCC3)cc1 | > 100 | > 100 | > 100 |  | > 100 | > 100 | > 100 | > 100 | > 100 | > 100 | > 100 |  | > 100 |  |  |  |  | 
CCCCC1Cc2ccccc2-c2n1c1ccccc1[n+]2C (stereo not given) | > 100 | > 100 | 22.9 |  | 81.8 | > 100 | > 100 | > 100 | > 100 | > 100 |  |  | 58.5 | > 100 |  |  |  | 
C=CCN1C(=O)CC1N(CC=C)S(=O)(=O)c1ccc(C)cc1 (stereo not given) | > 100 | > 100 | > 100 | > 100 | > 100 | > 100 | > 100 | > 100 | > 100 | > 100 | > 100 |  | > 100 | > 100 | > 100 |  |  | 
CSc1c(C#N)c(O)n(-c2ccc(C)cc2)c(=O)c1C#N | > 100 | > 100 | > 100 | > 100 | > 100 | > 100 | > 100 | > 100 |  | > 100 | > 100 | > 100 | > 100 | > 100 | > 100 |  |  | 
O=C1CSC(/C=C/c2ccccc2)N1c1ccc(-c2ccc(-n3c(-c4ccccc4)nc4ccccc4c3=O)cc2)cc1 (stereo not given) | 88.7 | 66.8 | > 100 | 64.4 | > 100 |  | 63 | 92.7 | 55.7 | > 100 | > 100 | 8.52 | > 100 | > 100 | > 100 |  |  | 
COC(=O)/C=C/c1cnc2c(c1)oc(=O)n2CCc1ccccn1 |  | > 100 | 9.78 | > 100 | > 100 | > 100 | > 100 |  | > 100 | > 100 | > 100 | > 100 | > 100 | > 100 | > 100 |  |  | 
FC(F)(F)c1nc2ccc(SSc3ccc4nc(C(F)(F)F)[nH]c4c3)cc2[nH]1 | > 100 | > 100 | > 100 |  | > 100 | > 100 | > 100 | > 100 | > 100 |  | > 100 | > 100 | > 100 | > 100 | > 100 | > 100 | > 100 | > 100
Oc1ccc(Cl)cc1-c1[nH]c(=S)nc(-c2ccccc2)c1Cl | > 100 | > 100 | > 100 | > 100 | > 100 | > 100 | > 100 | > 100 | > 87.8 | > 100 | > 100 | 70.1 | > 100 | > 100 |  |  |  | 
C[C@]12CCC3c4ccc(O)cc4CC[C@H]3C1CC(=O)N(N)C2=O (stereo not given in full) | > 100 |  | > 100 | > 100 | > 100 | > 100 | > 100 | > 100 | > 100 | > 100 | > 100 | > 100 | > 100 | > 100 | > 100 |  |  | 
COc1cc(O)c2c(=O)c(OC)c(-c3ccc4c(c3)OCO4)oc2c1 | > 100 | > 100 | > 100 | > 100 | > 100 | > 100 |  | > 100 | > 92.2 | 81 | > 100 | 14.9 | > 100 | > 100 | > 100 |  |  | 
C=C(C)C#CC(O)(C(=O)OC1CCN(C)CC1)C(C)C (stereo not given) | > 100 | > 100 | > 100 | > 100 | > 100 | > 100 |  | > 100 | > 100 | > 100 | > 100 | > 100 | > 100 | > 100 | > 100 |  |  | 
CCOC(=O)N1CCN(c2c(C)nc(C)[nH]c2=O)CC1 | > 100 | > 100 | > 100 | > 100 | > 100 | > 100 | > 100 | > 100 | > 100 | > 100 | > 100 |  | > 100 | > 100 | > 100 |  |  | 
Cc1cccc(-n2c(C)nc3ccc(NC4OC(CO)C(O)C(O)C4O)cc3c2=O)c1 (stereo not given) | > 100 | > 100 | > 100 | > 100 | > 100 | > 100 | > 100 | > 100 | > 100 |  | > 100 | > 100 | > 100 | > 100 | > 100 |  |  | 
